Results as given in patent US20160303127A1, “COMBINATION THERAPY WITH C-MET AND EGFR ANTAGONISTS” (Genentech, Inc., priority 2008, published 2016).

System: NCI-H596 tumors
Assay: Combination efficacy of MetMAb with erlotinib in the NCI-H596 hu-HGF-Tg-C3H-SCID xenograft model
Type: in vivo
Details: NCI-H596 tumors in hu-HGF-Tg-C3H-SCID mice, MetMAb 30 mg/kg IP once, erlotinib 150 mg/kg PO QD x2 weeks; for reduction in tumor growth compared to the vehicle control: day 20
Procedure: Test Material. Anti-c-met monovalent monoclonal antibody MetMAb (rhuOA5D5v2) was provided by the Antibody Engineering Department at Genentech, Inc., in a clear liquid form at 10.6 mg/ml. The vehicle was 10 mM histidine succinate, 4% trehalose dihydrate, 0.02% polysorbate 20, pH 5.7. Erlotinib (TARCEVA™) was provided by OSI Pharmaceuticals to the Pharmaceutics Department at Genentech and was weighed out along with a sufficient amount of vehicle (methylcellulose tween (MCT)). All material was shipped from Genentech, Inc. to the Van Andel Research Institute (VARI; Grand Rapids, Mich.) and was formulated prior to animal treatments. Materials were stored in a refrigerator set to maintain a temperature range of 4° C. to 8° C. The NCI-H596 cell line was obtained from American Type Culture collection (Manassas, Va.).
Species. Forty human HGF transgenic C3H-SCID mice (hu-HGF-Tg-C3H-SCID) were obtained from the in-house colony at the Van Andel Research Institute (VARI; Grand Rapids, Mich.). Five C3H-SCID mice were obtained from Jackson Laboratories. Animals were 4-6 weeks old and weighed 21-22 grams each. Mice were acclimated to study conditions for at least three days prior to tumor cell inoculations. Mice were housed in a shower-in barrier facility. Animals were housed in ventilated caging systems in rooms with filters supplying High-Efficiency Particulate Air (HEPA). Only animals that appeared to be healthy and were free of obvious abnormalities were used for the study.
Study design. As most HGF responsive tumors are driven in a paracrine fashion, a xenograft model that models paracrine driven growth was selected. Mouse HGF is a poor ligand for human c-met leading to a low biological response of human c-met expressing cells lines to mouse HGF (Bhargava, M., et al., 1992; Rong, S., et al., 1992). […]
The NCI-H596 cell line bears a mutated form of the c-met gene lacking exon 14 that encodes a binding site for the E3 ubiquitin ligase Cbl (Kong-Beltran, M., 2006). […] The responsiveness of NCI-H596 can also be seen in vivo, as the cell line readily form tumors in HGF-Tg-SCID mice (expressing human HGF, as noted above), but will not form tumors in immunocompromised mice lacking human HGF (nu/nu nude mice or SCID mice). […]
NCI-H596 cells were cultured in growth media that consisted of RPMI 1640 media (Invitrogen), 2 mM L-glutamine, and 10% fetal bovine serum. […] A subset of cells was counted by trypan blue exclusion and the remainder of the cells was resuspended in 100 μl of sterile 1× PBS to a concentration of 5×10^6 cells per milliliter.
Mice were prepared for inoculation by shaving the dorsal area with clippers. […] Tumors were monitored until they reached a mean volume of 100 mm^3. […]

## C#Cc1cccc(Nc2ncnc3cc(OCCOC)c(OCCOC)cc23)c1 [erlotinib, N-(3-ethynylphenyl)-6,7-bis(2-methoxyethoxy)-4-quinazolinamine]
  reduction in tumor growth compared to the vehicle control: statistically insignificant reduction
  mean time to tumor doubling (TTD): 9.5 (±1.2) days

B1: MetMAb: Anti-c-met monovalent monoclonal antibody MetMAb (rhuOA5D5v2) (WO2007/063816) (antibody, chains of the INN, looked up, V domains shown)
VH: EVQLVESGGGLVQPGGSLRLSCAASGYTFTSYWLHWVRQAPGKGLEWVGMIDPSNSDTRFNPNFKDRFTISADTSKNTAYLQMNSLRAEDTAVYYCATYRSYVTPLDYWGQGTLVTVSS
VL: DIQMTQSPSSLSASVGDRVTITCKSSQSLLYTSSQKNYLAWYQQKPGKAPKLLIYWASTRESGVPSRFSGSGSGTDFTLTISSLQPEDFATYYCQQYYAYPWTFGQGTKVEIK
modifications: one-armed
  reduction in tumor growth compared to the vehicle control: 67%
  mean time to tumor doubling (TTD): 17.8 (±2.2) days
